Laboratory results taken from ChEMBL document CHEMBL1201862, “PubChem BioAssay data set” (2004).
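Growth conditions: 96-well plates. Treatment: test compound, 48 hours, 5 concentrations. Analysis: linear interpolation between bracketing concentrations; unreached endpoints set to highest concentration. At the GI50, growth is halved.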 Activity calls are given as the source filed them. No stated cut-off is given here; in the data, active = GI50 up to about 1.1 µM and inactive = higher.

Legend:
Assay in all cases: DTP human tumour cell line panel, 48 h
SF-268 = tested on: SF-268
A549 = tested on: A549
SK-MEL-5 = tested on: SK-MEL-5
DU-145 = tested on: DU-145
HCT-15 = tested on: HCT-15
A498 = tested on: A498
K562 = tested on: K562
EKVX = tested on: EKVX
Hs-578T = tested on: Hs-578T
HT-29 = tested on: HT-29
LOX IMVI = tested on: LOX IMVI
BT-549 = tested on: BT-549
HCC 2998 = tested on: HCC 2998
OVCAR-3 = tested on: OVCAR-3
SW-620 = tested on: SW-620
MDA-MB-231 = tested on: MDA-MB-231
NCI-H226 = tested on: NCI-H226
PC-3 = tested on: PC-3
OVCAR-5 = tested on: OVCAR-5
SK-MEL-2 = tested on: SK-MEL-2
UO-31 = tested on: UO-31
SF-539 = tested on: SF-539
CCRF-CEM = tested on: CCRF-CEM
HOP-62 = tested on: HOP-62
NCI/ADR-RES = tested on: NCI/ADR-RES
NCI-H23 = tested on: NCI-H23
SR = tested on: SR
COLO 205 = tested on: COLO 205
HOP-92 = tested on: HOP-92
HCT-116 = tested on: HCT-116
U-251 = tested on: U-251
CAKI-1 = tested on: CAKI-1
SK-MEL-28 = tested on: SK-MEL-28
UACC-62 = tested on: UACC-62
SN12C = tested on: SN12C
UACC-257 = tested on: UACC-257
SK-OV-3 = tested on: SK-OV-3
NCI-H522 = tested on: NCI-H522
RXF 393 = tested on: RXF 393
HL-60 = tested on: HL-60
MDA-MB-435 = tested on: MDA-MB-435
ACHN = tested on: ACHN
OVCAR-8 = tested on: OVCAR-8
786-0 = tested on: 786-0
TK-10 = tested on: TK-10
M14 = tested on: M14
T47D = tested on: T47D
SNB-19 = tested on: SNB-19
KM12 = tested on: KM12
RPMI-8226 = tested on: RPMI-8226
MCF7 = tested on: MCF7
NCI-H460 = tested on: NCI-H460
IGROV-1 = tested on: IGROV-1
Malme-3M = tested on: Malme-3M
MOLT-4 = tested on: MOLT-4
SF-295 = tested on: SF-295
OVCAR-4 = tested on: OVCAR-4
SNB-75 = tested on: SNB-75

Cc1cc2c(C(C)C)c(O)c(O)c(/C=N/c3cc(C(F)(F)F)ccc3Cl)c2c(O)c1-c1c(C)cc2c(C(C)C)c(O)c(O)c(/C=N/c3cc(C(F)(F)F)ccc3Cl)c2c1O
GI50 (SF-268): 37.2 µM (inactive) | GI50 (A549): 38.5 µM (inactive) | GI50 (SK-MEL-5): 23.6 µM (inactive) | GI50 (DU-145): > 100 µM (inactive) | GI50 (HCT-15): 34.8 µM | GI50 (A498): 64.3 µM (inactive) | GI50 (K562): 39.4 µM (inactive) | GI50 (EKVX): 98.6 µM (inactive) | GI50 (Hs-578T): > 100 µM (inactive) | GI50 (HT-29): 32.5 µM (inactive) | GI50 (LOX IMVI): 22.6 µM (inactive) | GI50 (BT-549): 28.3 µM (inactive) | GI50 (HCC 2998): 62.7 µM (inactive) | GI50 (OVCAR-3): 37.3 µM (inactive) | GI50 (SW-620): 58.2 µM (inactive) | GI50 (MDA-MB-231): 25.6 µM (inactive) | GI50 (NCI-H226): 29 µM (inactive) | GI50 (PC-3): 35 µM (inactive) | GI50 (OVCAR-5): 77.3 µM (inactive) | GI50 (SK-MEL-2): 35.3 µM (inactive) | GI50 (UO-31): 30.2 µM (inactive) | GI50 (SF-539): 58.6 µM (inactive) | GI50 (CCRF-CEM): > 100 µM (inactive) | GI50 (HOP-62): 70.5 µM (inactive) | GI50 (NCI/ADR-RES): 63.5 µM (inactive) | GI50 (NCI-H23): 57.8 µM (inactive) | GI50 (SR): 25.4 µM (inactive) | GI50 (COLO 205): 31.2 µM (inactive) | GI50 (HOP-92): 16.6 µM (inactive) | GI50 (HCT-116): 74.8 µM (inactive) | GI50 (U-251): 19.3 µM (inactive) | GI50 (CAKI-1): 48.3 µM (inactive) | GI50 (SK-MEL-28): 38.1 µM (inactive) | GI50 (UACC-62): 24.6 µM (inactive) | GI50 (SN12C): 49.1 µM (inactive) | GI50 (UACC-257): 37.4 µM (inactive) | GI50 (SK-OV-3): 12.5 µM (inactive) | GI50 (NCI-H522): 21.5 µM (inactive) | GI50 (RXF 393): 28.8 µM (inactive) | GI50 (HL-60): 26.9 µM (inactive) | GI50 (MDA-MB-435): 32.6 µM (inactive) | GI50 (ACHN): 24.9 µM (inactive) | GI50 (OVCAR-8): 44.5 µM (inactive) | GI50 (786-0): 50.6 µM (inactive) | GI50 (TK-10): 60.7 µM (inactive) | GI50 (M14): 75.3 µM (inactive) | GI50 (T47D): 29.6 µM (inactive) | GI50 (SNB-19): 28.1 µM (inactive) | GI50 (KM12): 30.1 µM (inactive) | GI50 (RPMI-8226): 50.7 µM (inactive) | GI50 (MCF7): 27.7 µM (inactive) | GI50 (NCI-H460): 31.3 µM (inactive) | GI50 (IGROV-1): 25.1 µM (inactive) | GI50 (Malme-3M): 32.8 µM (inactive)

CSc1ncc2c(C#N)c3n(C)c4ccccc4n3c(=O)c2n1
GI50 (SF-268): > 100 µM (inactive) | GI50 (A549): > 100 µM (inactive) | GI50 (SK-MEL-5): > 100 µM (inactive) | GI50 (DU-145): > 100 µM (inactive) | GI50 (HCT-15): > 100 µM | GI50 (A498): > 100 µM (inactive) | GI50 (K562): > 100 µM (inactive) | GI50 (EKVX): > 100 µM (inactive) | GI50 (Hs-578T): > 100 µM (inactive) | GI50 (HT-29): > 100 µM (inactive) | GI50 (LOX IMVI): > 100 µM (inactive) | GI50 (BT-549): > 100 µM (inactive) | GI50 (HCC 2998): > 100 µM (inactive) | GI50 (OVCAR-3): > 100 µM (inactive) | GI50 (SW-620): > 100 µM (inactive) | GI50 (MDA-MB-231): > 100 µM (inactive) | GI50 (NCI-H226): > 100 µM (inactive) | GI50 (MOLT-4): > 100 µM (inactive) | GI50 (PC-3): > 100 µM (inactive) | GI50 (OVCAR-5): > 100 µM (inactive) | GI50 (SK-MEL-2): > 100 µM (inactive) | GI50 (UO-31): > 100 µM (inactive) | GI50 (SF-539): > 100 µM (inactive) | GI50 (SF-295): > 100 µM (inactive) | GI50 (OVCAR-4): > 100 µM (inactive) | GI50 (CCRF-CEM): > 100 µM (inactive) | GI50 (HOP-62): > 100 µM (inactive) | GI50 (NCI/ADR-RES): > 100 µM (inactive) | GI50 (NCI-H23): > 100 µM (inactive) | GI50 (SR): > 100 µM (inactive) | GI50 (COLO 205): > 100 µM (inactive) | GI50 (HOP-92): > 100 µM (inactive) | GI50 (HCT-116): > 100 µM (inactive) | GI50 (U-251): > 100 µM (inactive) | GI50 (CAKI-1): > 100 µM (inactive) | GI50 (SK-MEL-28): > 100 µM (inactive) | GI50 (UACC-62): > 100 µM (inactive) | GI50 (SN12C): > 100 µM (inactive) | GI50 (UACC-257): > 100 µM (inactive) | GI50 (SK-OV-3): > 100 µM (inactive) | GI50 (RXF 393): > 100 µM (inactive) | GI50 (SNB-75): > 100 µM (inactive) | GI50 (HL-60): > 100 µM (inactive) | GI50 (MDA-MB-435): > 100 µM (inactive) | GI50 (ACHN): > 100 µM (inactive) | GI50 (OVCAR-8): > 100 µM (inactive) | GI50 (786-0): > 100 µM (inactive) | GI50 (TK-10): > 100 µM (inactive) | GI50 (M14): > 100 µM (inactive) | GI50 (T47D): > 100 µM (inactive) | GI50 (SNB-19): > 100 µM (inactive) | GI50 (KM12): > 100 µM (inactive) | GI50 (RPMI-8226): > 100 µM (inactive) | GI50 (MCF7): > 100 µM (inactive) | GI50 (NCI-H460): > 100 µM (inactive) | GI50 (IGROV-1): > 100 µM (inactive) | GI50 (Malme-3M): > 100 µM (inactive)
